How the values were obtained:
Balb/c mice = test: Mouse immunogenicity study, antigen-specific T cells by intracellular cytokine staining; assay type: in vivo; details: prime-boost, LNPs with saRNA expressing H5 and N1, peptide stimulation, FIG. 6
BHK-V cells = test: In vitro potency of saRNA-LNPs (antigen-expressing cells, flow cytometry); assay type: cell-based; details: FIG. 3
Method: The ability of the saRNA-LNPs to transfect cultured cells was characterized using an in vitro assay based on the percentage of cells expressing the antigen of interest. Specifically, 1 million BHK-V cells were co-incubated with saRNA-LNP of varying concentration (highest 50 ng per well, lowest 0.39 ng per well) in 0.3 mL of media for 17-19 hours at 37° C. with 5% CO2. Subsequently, the cells were scraped from the dish to form a single-cell suspension, fixed and permeabilized (BD Cytofix/Perm kit), and then stained with fluorophore-labeled antigen-specific antibodies against H5 and N1 (for saRNA expressing both H5 and N1). Luciferase expression was not measured for saRNA expressing both H5 and luciferase. The percentage of single or double antigen positive cells was quantified using a BD Accuri flow cytometer. […] The slope of that line multiplied by −100,000 was reported as the LNP potency. Alternatively, a similar assay was performed in a 96-well using BHK-21 cells and analysed using a Cytation 5 Cell Imaging Multimode Reader (Agilent). The results of this assay were analysed in the same way as described for the flow cytometry assay.

[1] = TNS fluorescence apparent pKa protocol for saRNA-LNP; assay type: physicochemical; details: saRNA-LNPs, TNS 6 μM, to 9.5, 25° C., EC50 of sigmoidal curve
Method: In a black 96-well plate, solutions of saRNA-LNP (final assay concentration 2 μg/mL total RNA) in a series of buffers ranging from pH 4 to 9.5 were prepared. Buffers between pH4 to 7.6 were prepared from disodium phosphate and citric acid. Buffers from 7.8 to 9.5 were prepared by titrating tris buffer with 10 N sodium hydroxide. To each well was added 6-(p-Toluidino)-2-naphthalenesulfonic acid sodium salt (TNS) in water to a final assay concentration of 6 μM. The fluorescence was read on a plate reader at 25° C. with an excitation setting of 321 nm and an emission setting of 445 nm. The intensity values were plotted as a function of pH using GraphPad Prism and were fit with a sigmoidal dose response curve. The apparent pKa was determined as the EC50 of this curve where half of the ionizable amines are expected to be protonated.

## CCCCCCCCCC(CCCCCCCCC(=O)OCC(CCCC)CCCCCC)OC(=O)CCCN(C)C (stereo not shown) [Compound 11]
Balb/c mice
  activated antigen-specific CD8 T cells: measurable levels
BHK-V cells; both saRNA constructs examined
  LNP potency (in vitro), comparison of the two LNPs: trended higher in potency
BHK-V cells; saRNA-LNP, 17-19 hours
  ability to transfect BHK-V cells in vitro: able to transfect
[1]
  pKa: 6.25

From patent US20250114311A1, “IONIZABLE CATIONIC COMPOUNDS FOR MESSENGER RNA DELIVERY” (SEQIRUS INC., priority 2021, published 2025)
